Assay: in vivo
Parameters: species or system Wistar rats
Conditions: male, Wistar, rat, po
From the text: The primary objective of the test was to compare the pharmacokinetics of diclofenac potassium when used as a single active compound with diclofenac potassium in combination with famotidine and/or potassium bicarbonate. In this experimental study, the aim was to observe how the addition of potassium bicarbonate to diclofenac and famotidine would change the pharmacokinetic properties of diclofenac potassium when diclofenac potassium is given alone or in combination with famotidine and/or potassium bicarbonate.
Male Wistar rats (240-260 g) were used in the study. The rats were maintained in an air-conditioned animals quarter at a temperature of 22±2° C. and a relative humidity of 50±10%. Food and water were allowed ad libitum. The animals were acclimatized to the facilities for five days, and then fasted with free access to water for 12 h prior to the experiment. All the animals were housed under similar conditions.
Bioavailability and pharmacokinetics of diclofenac were studied in all the normal state of rats following an oral administration of 1 mg/kg diclofenac potassium, 0.4 mg/kg famotidine and 0.72 mg/kg or 0.36 mg/kg potassium bicarbonate in different occasions. Each rat was further subjected to similar studies after administration of diclofenac potassium and/or diclofenac in combination with famotidine. A total of 30 rats were used in the study divided into 5 groups, each group was administered; diclofenac alone, or 4 different combinations of diclofenac as outlined below.
Six male and/or female rats per group were lavaged with 1 mg/kg Diclofenac potassium and combinations at a dosing volume of 2 ml/kg. Blood (0.2 ml) was taken from the tail vein prior to administration of test substances (0 h) and after 0.083, 0.167, 0.25, 0.5, 1, 2, 4, 8 and 12 h.
Blood samples were collected in tubes containing %5 Na2-EDTA and kept on ice until 50 ul dichloromethane was added and they were centrifuged at 7000×g for 5 min at 4° C. and supernatants were collected for LC/MSMS analysis.

Cmax: 1260 ng/mL
Tmax of diclofenac: 15 min
AUC(0-t) (1 mg/kg): 7510 ng·h/mL
Cmax (1 mg/kg): 1262 ± 0.048 ng/mL
Tmax (1 mg/kg): 15 min
Blood Concentrations of Diclofenac Potassium (1 mg/kg, 0.083 h): 1.096 ± 0.054
Blood Concentrations of Diclofenac Potassium (1 mg/kg, 0.25 h): 1.262 ± 0.048
Blood Concentrations of Diclofenac Potassium (1 mg/kg, 0.5 h): 1.078 ± 0.137
Blood Concentrations of Diclofenac Potassium (1 mg/kg, 1 h): 0.943 ± 0.015
Blood Concentrations of Diclofenac Potassium (1 mg/kg, 2 h): 0.600 ± 0.159
Blood Concentrations of Diclofenac Potassium (1 mg/kg, 4 h): 0.600 ± 0.015
Blood Concentrations of Diclofenac Potassium (1 mg/kg, 8 h): 0.578 ± 0.033
Blood Concentrations of Diclofenac Potassium (1 mg/kg, 12 h): 0.486 ± 0.092
SMILES: O=C(O)Cc1ccccc1Nc1c(Cl)cccc1Cl [Diclofenac-K, 2[(2,6-dichlorophenyl)amino]benzeneacetic acid]

From patent US20200022936A1, “COMBINATIONS OF DICLOFENAC, H2 RECEPTOR ANTAGONISTS AND ALKALI METAL BICARBONATES FOR THE TREATMENT OF PAIN AND INFLAMMATION” (priority 2017, published 2020)
